SMILES	logP
C=C(C)C1CCC2(C)OC2C1 (centres undefined)	3.2
CC(C)=CCC[C@@H](C)CC=O	3.83
CC12CCC(CC1)C(C)(C)O2	2.74
CC1(C)C2CC=C(C=O)C1C2 (centres undefined)	2.98
CC1=CC(O)C2CC1C2(C)C (centres undefined)	3.16
CC(C)C12CCC(C)(CC1)O2	2.97
CC1(C)C2CC=C(CO)C1C2 (centres undefined)	3.22
CC1(C)[C@@H]2CC[C@@]1(C)[C@H](O)C2	3.24
CC1(C)[C@H]2CC[C@](C)(C2)[C@H]1O	3.17
C=C(C)C1CC=C(C)C(O)C1 (centres undefined)	3.12
Cc1ccc(C(C)C)cc1O	3.49
C=C(C)C1CCC(C)C(=O)C1 (centres undefined)	2.85
CC(C)=CCC/C(C)=C/CO	3.56
CC(=O)/C=C/C1C(C)=CCCC1(C)C (centres undefined)	3.85
C=C(C)C1CC=C(CO)CC1 (centres undefined)	3.17
C=C(C)[C@@H]1CC=C(C=O)CC1	3.13
C=C1CCC2CC1C2(C)C (centres undefined)	4.16
C=C(C)C1CCC(C)C(O)C1 (centres undefined)	3.21
CC=Cc1ccc(O)c(OC)c1	3.04
CC(=O)OC/C=C(\C)CCC=C(C)C	4.04
C=CC(C)(CCC=C(C)C)OC(C)=O (centres undefined)	3.93
C=CC1(C)CCC(C(C)(C)O)O1 (centres undefined)	2.43
CC1(C)C2CCC(CN)C1C2 (centres undefined)	2.05
C=C1[C@H]2CC[C@H](C2)C1(C)C	4.22

Results, then the molecule that gave them:

logP	SMILES
3.4	CC1CCC(C(C)C)C(O)C1 (centres undefined)
3.05	CC(C)[C@@H]1CC[C@@H](C)CC1=O
3.52	CC12CCC(C1)C(C)(C)C2=O (centres undefined)
4.38	CC1=CCC2C(C1)C2(C)C (centres undefined)
3.26	CC1=CCC(O)(C(C)C)CC1 (centres undefined)
3.96	CC(=O)OC(C)(C)C1CC=C(C)CC1 (centres undefined)
4.25	CC1=CC=C(C(C)C)CC1
3.08	CC(C)=C1CC[C@@H](C)CC1=O
4.44	CC1=CC2C(CC1)C2(C)C (centres undefined)
2.85	CC1=CC(=O)C(C(C)C)CC1 (centres undefined)
2.23	CC1=CC(=O)[C@H]2C[C@@H]1C2(C)C
1.81	CC1=CCC(C(C)(C)O)C[C@@H]1O (some centres undefined)
2.71	C=C(C)[C@@H]1CC=C(C)C(=O)C1
2.42	CC1=CCC2C(C1=O)C2(C)C (centres undefined)
4	CC(=O)OC1CC(C)CCC1C(C)C (racemic)

From the OPERA property sets (Mansouri et al. 2018)
